# Assay results published in PubChem BioAssay (NCI).
#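 Five concentrations, 48 hours, 96-well plates. GI50 is the concentration that inhibits growth by half. The concentration for full growth arrest is given as TGI.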
# How the values were obtained:
# Experiment in all cases: growth of human tumour cells (NCI), 48 h
# [1] = tested on: NCI-H23 lung
# [2] = tested on: NCI-H226 lung
# [3] = tested on: HCT-15 colon
# [4] = tested on: HCC-2998 colon
# [5] = tested on: HCT-116 colon
# [6] = tested on: NCI-H522 lung
# [7] = tested on: MOLT-4 leukemia
# [8] = tested on: SK-MEL-5 melanoma
# [9] = tested on: NCI-H460 lung
# [10] = tested on: SF-539 CNS
# [11] = tested on: KM12 colon
# [12] = tested on: OVCAR-8 ovarian
# [13] = tested on: HL-60(TB) leukemia
# [14] = tested on: RPMI-8226 leukemia
# [15] = tested on: M14 melanoma
# [16] = tested on: MDA-MB-435
# [17] = tested on: CCRF-CEM leukemia
# [18] = tested on: U251 CNS
# [19] = tested on: IGROV1 ovarian
# [20] = tested on: ACHN renal
# [21] = tested on: SK-MEL-2 melanoma
# [22] = tested on: UO-31 renal
# [23] = tested on: SN12C renal
# [24] = tested on: MALME-3M melanoma
# [25] = tested on: A498 renal
# [26] = tested on: OVCAR-4 ovarian
# [27] = tested on: UACC-62 melanoma
# [28] = tested on: K-562 leukemia
# [29] = tested on: SNB-75 CNS
# [30] = tested on: HOP-92 NSCLC
# [31] = tested on: HS 578T breast
# [32] = tested on: DU-145 prostate
# [33] = tested on: EKVX NSCLC
# [34] = tested on: RXF 393 renal
# [35] = tested on: LOX IMVI melanoma
# [36] = tested on: OVCAR-3 ovarian
# [37] = tested on: SK-MEL-28 melanoma
# [38] = tested on: SF-268 CNS
# [39] = tested on: CAKI-1 renal
# [40] = tested on: TK-10 renal
# [41] = tested on: UACC-257 melanoma
# [42] = tested on: BT-549 breast
# [43] = tested on: SW-620 colon
# [44] = tested on: MDA-MB-231 breast
# [45] = tested on: T-47D breast
# [46] = tested on: 786-0 renal
# [47] = tested on: HT29 colon
# [48] = tested on: SF-295 CNS
# [49] = tested on: A549 NSCLC
# [50] = tested on: SNB-19 CNS
# [51] = tested on: SK-OV-3 ovarian
# [52] = tested on: SR leukemia
# [53] = tested on: COLO 205 colon
# [54] = tested on: MCF7 breast
# [55] = tested on: OVCAR-5 ovarian
# [56] = tested on: PC-3 prostate
# [57] = tested on: HOP-62 NSCLC
# [58] = tested on: NCI/ADR-RES ovarian
smiles,measurement,setting,value
COc1ccc2c(c1)c(/C=N/Nc1ccnc3cc(Cl)ccc13)cn2C,GI50,[1],214 nM
same,TGI,[1],556 nM
same,GI50,[2],1820 nM
same,TGI,[2],4310 nM
same,GI50,[3],200 nM
same,TGI,[3],410 nM
same,GI50,[4],369 nM
same,TGI,[4],1190 nM
same,GI50,[5],176 nM
same,TGI,[5],324 nM
same,GI50,[6],563 nM
same,TGI,[6],1280 nM
same,GI50,[7],215 nM
same,TGI,[7],478 nM
same,GI50,[8],1640 nM
same,TGI,[8],3180 nM
same,GI50,[9],193 nM
same,TGI,[9],357 nM
same,GI50,[10],612 nM
same,TGI,[10],1250 nM
same,GI50,[11],194 nM
same,TGI,[11],384 nM
same,GI50,[12],202 nM
same,TGI,[12],440 nM
same,GI50,[13],231 nM
same,TGI,[13],533 nM
same,GI50,[14],233 nM
same,TGI,[14],565 nM
same,GI50,[15],992 nM
same,TGI,[15],2600 nM
same,GI50,[16],186 nM
same,TGI,[16],354 nM
same,GI50,[17],234 nM
same,TGI,[17],589 nM
same,GI50,[18],173 nM
same,TGI,[18],322 nM
same,GI50,[19],176 nM
same,TGI,[19],345 nM
same,GI50,[20],683 nM
same,TGI,[20],1560 nM
same,GI50,[21],1700 nM
same,TGI,[21],3280 nM
same,GI50,[22],1390 nM
same,TGI,[22],2850 nM
same,GI50,[23],439 nM
same,TGI,[23],961 nM
same,GI50,[24],1470 nM
same,TGI,[24],3270 nM
same,GI50,[25],1830 nM
same,TGI,[25],3470 nM
same,GI50,[26],681 nM
same,TGI,[26],1700 nM
same,GI50,[27],1730 nM
same,TGI,[27],3520 nM
same,GI50,[28],193 nM
same,TGI,[28],382 nM
same,GI50,[29],1320 nM
same,TGI,[29],2800 nM
same,GI50,[30],823 nM
same,TGI,[30],2490 nM
same,GI50,[31],1810 nM
same,TGI,[31],3880 nM
same,GI50,[32],192 nM
same,TGI,[32],349 nM
same,GI50,[33],1510 nM
same,TGI,[33],3190 nM
same,GI50,[34],1260 nM
same,TGI,[34],2900 nM
same,GI50,[35],183 nM
same,TGI,[35],352 nM
same,GI50,[36],1180 nM
same,TGI,[36],2440 nM
same,GI50,[37],1840 nM
same,TGI,[37],3460 nM
same,GI50,[38],1660 nM
same,TGI,[38],3460 nM
same,GI50,[39],1490 nM
same,TGI,[39],2890 nM
same,GI50,[40],1240 nM
same,TGI,[40],2780 nM
same,GI50,[41],1780 nM
same,TGI,[41],3660 nM
same,GI50,[42],1890 nM
same,TGI,[42],3540 nM
same,GI50,[43],185 nM
same,TGI,[43],360 nM
same,GI50,[44],203 nM
same,TGI,[44],444 nM
same,GI50,[45],227 nM
same,TGI,[45],599 nM
same,GI50,[46],175 nM
same,TGI,[46],317 nM
same,GI50,[47],176 nM
same,TGI,[47],325 nM
same,GI50,[48],1110 nM
same,TGI,[48],3150 nM
same,GI50,[49],181 nM
same,TGI,[49],347 nM
same,GI50,[50],648 nM
same,TGI,[50],2090 nM
same,GI50,[51],1570 nM
same,TGI,[51],3140 nM
same,GI50,[52],143 nM
same,TGI,[52],521 nM
same,GI50,[53],578 nM
same,TGI,[53],1800 nM
same,GI50,[54],164 nM
same,TGI,[54],327 nM
same,GI50,[55],609 nM
same,TGI,[55],1190 nM
same,GI50,[56],517 nM
same,TGI,[56],1290 nM
same,GI50,[57],1450 nM
same,TGI,[57],3300 nM
same,GI50,[58],600 nM
same,TGI,[58],1480 nM
Cn1ccnc1C(=O)/C=C/C=C/c1ccc(C(=O)Nc2ccc(F)cc2)cc1,GI50,[1],1040 nM
same,TGI,[1],4460 nM
same,GI50,[2],2180 nM
same,TGI,[2],12800 nM
same,GI50,[3],568 nM
same,TGI,[3],1250 nM
same,GI50,[4],2610 nM
same,TGI,[4],8770 nM
same,GI50,[5],666 nM
same,TGI,[5],1570 nM
same,GI50,[6],1640 nM
same,TGI,[6],16800 nM
same,GI50,[7],1020 nM
same,TGI,[7],> 33300 nM
same,GI50,[8],2650 nM
same,TGI,[8],12000 nM
same,GI50,[9],1940 nM
same,TGI,[9],10600 nM
same,GI50,[10],858 nM
same,TGI,[10],2440 nM
same,GI50,[11],6790 nM
same,TGI,[11],> 33300 nM
same,GI50,[12],1200 nM
same,TGI,[12],> 33300 nM
same,GI50,[13],956 nM
same,TGI,[13],7200 nM
same,GI50,[14],699 nM
same,TGI,[14],2270 nM
same,GI50,[15],1930 nM
same,TGI,[15],28700 nM
same,GI50,[16],1070 nM
same,TGI,[16],4450 nM
same,GI50,[17],731 nM
same,TGI,[17],> 33300 nM
same,GI50,[18],911 nM
same,TGI,[18],8200 nM
same,GI50,[19],846 nM
same,TGI,[19],2610 nM
same,GI50,[20],1150 nM
same,TGI,[20],5540 nM
same,GI50,[21],17900 nM
same,TGI,[21],> 33300 nM
same,GI50,[22],1420 nM
same,TGI,[22],7160 nM
same,GI50,[23],1540 nM
same,TGI,[23],14200 nM
same,GI50,[24],1290 nM
same,TGI,[24],6580 nM
same,GI50,[25],2600 nM
same,TGI,[25],26900 nM
same,GI50,[26],6060 nM
same,TGI,[26],> 33300 nM
same,GI50,[27],3480 nM
same,TGI,[27],15400 nM
same,GI50,[28],828 nM
same,TGI,[28],> 33300 nM
same,GI50,[29],1180 nM
same,TGI,[29],29300 nM
same,GI50,[30],3140 nM
same,TGI,[30],20500 nM
same,GI50,[31],2270 nM
same,TGI,[31],> 33300 nM
same,GI50,[32],1520 nM
same,TGI,[32],> 33300 nM
same,GI50,[33],1260 nM
same,TGI,[33],12100 nM
same,GI50,[34],711 nM
same,TGI,[34],1920 nM
same,GI50,[37],2410 nM
same,TGI,[37],> 33300 nM
same,GI50,[38],1540 nM
same,TGI,[38],> 33300 nM
same,GI50,[39],3220 nM
same,TGI,[39],> 33300 nM
same,GI50,[40],27700 nM
same,TGI,[40],> 33300 nM
same,GI50,[41],14100 nM
same,TGI,[41],> 33300 nM
same,GI50,[42],1320 nM
same,TGI,[42],15100 nM
same,GI50,[43],796 nM
same,TGI,[43],2040 nM
same,GI50,[44],1410 nM
same,TGI,[44],> 33300 nM
same,GI50,[45],2010 nM
same,TGI,[45],> 33300 nM
same,GI50,[46],778 nM
same,TGI,[46],1880 nM
same,GI50,[47],890 nM
same,TGI,[47],2490 nM
same,GI50,[48],9490 nM
same,TGI,[48],> 33300 nM
same,GI50,[49],5360 nM
same,TGI,[49],> 33300 nM
same,GI50,[50],2050 nM
same,TGI,[50],> 33300 nM
same,GI50,[51],11000 nM
same,TGI,[51],> 33300 nM
same,GI50,[52],468 nM
same,TGI,[52],> 33300 nM
same,GI50,[53],5610 nM
same,TGI,[53],> 33300 nM
same,GI50,[54],917 nM
same,TGI,[54],> 33300 nM
same,GI50,[55],1730 nM
same,TGI,[55],16800 nM
same,GI50,[56],1260 nM
same,TGI,[56],> 33300 nM
same,GI50,[57],8470 nM
same,TGI,[57],> 33300 nM
same,GI50,[58],2020 nM
same,TGI,[58],> 33300 nM
